According to patent US20050130902A1, “Peptide compounds for counteracting reactive oxygen species and free radicals” (priority 2001, published 2005):
Where “and” joins values, the source holds several entries; their conditions need not be identical. Identical values can stand only once. No end group written: not given here.

Columns and labels:
SOD [1] = test: SOD level in brain of old C57 Black mice, 30 days daily oral gavage; assay type: in vivo; details: 18-month old mice
Method: As a further examination of the dose-response effect on upregulating SOD in “old” adult C57 Black mice, young and old animals were divided into the following treatment groups (n=3): • Animals 1-3: Young, 4-month old mice, untreated • Animals 4-6: Old, 18-month old mice, untreated • Animals 7-9: Old, 18-month old mice treated daily by oral gavage 0.33 mg/kg of PEP-1 • Animals 10-1 2: Old, 18-month old mice treated daily by oral gavage 3.3 mg/kg of PEP-1
At the end of 30 days, all animals were sacrificed and their brains were harvested. SOD level was analyzed by Western immunoblot. A SOD standard (“M”) was also run alongside the samples. The SOD levels were quantitated by densitometry measurements of the immunoblot.

[2] = Locomotor activity test (spontaneous behavioral arousal) in old C57 Black mice; assay type: in vivo
Method: Six weeks after assignment of the doses, surviving animals were examined in a standard locomotor activity test used to detect evidence of a reversal of age-related declines in spontaneous behavioral arousal (Forster et al., 1996; Dubey et al., Arch. Biochem. Biophys., 333: 189-197 (1996)). Arousal levels were measured using a Digiscan apparatus (Omnitech, model RXYZCM, Omnitech Electronics, Columbus, Ohio, USA). Each mouse was placed in a clear acrylic chamber (40.5 cm×40.5 cm×30.5 cm) for a […] session. The acrylic chamber was placed in a metal frame lined with arrays of photocells. A wooden cabinet with sheets of insulation enclosed the acrylic chamber and the metal frame. Fans provided an 80-db ambient noise level within the chamber. Movements of the mouse within the horizontal plane interrupted the photobeams, which were automatically recorded by a computer within 1-minute time samples. The measure used in this study was the average horizontal photobeam interruptions per minute, over a 16-minute testing session (horizontal counts/min).
The locomotor activity test was performed on blinded Groups 1, 2, 3, 4, 5, and 6, (young untreated control, old untreated control, old treated with PEP-1 at 0.025 mg/kg 0.075 mg/kg, 0.25 mg/kg, and 0.75 mg/kg, respectively) six weeks after assignment of the doses. A significant difference between the young and old untreated control groups was found (p<0.05), verifying previous findings of the age-associated decrease in spontaneous behavioral arousal.

[3] = Survival (longevity) of old C57 Black mice over 70-day treatment; assay type: in vivo; details: old 16-month mice
Excerpt: This study was designed to examine the in vivo effect of daily administration of a representative peptide compound, PEP-1, to reverse age-related declines in spontaneous behavioral arousal as measured by effect on locomotor activity and longevity of “old” adult individuals. In this study, C57 Black mice were divided into the following treatment groups (n=10 per group): • Group 1: Young, 4-month old mice, untreated • Group 2: Old, 16-month old mice, untreated • Group 3: Old, 16-month old mice treated daily by oral gavage with 0.025 mg/kg of PEP-1
Group 4: Old, 16-month old mice treated daily by oral gavage with 0.075 mg/kg of PEP-1 • Group 5: Old, 16-month old mice treated daily by oral gavage with 0.25 mg/kg of PEP-1 • Group 6: Old, 16-month old mice treated daily by oral gavage with 0.75 mg/kg of PEP-1 • Group 7: Old, 16-month old mice treated daily by oral gavage with 2.5 mg/kg of PEP-1
At the end of a 70-day treatment period, all of the young, untreated mice (Group 1) were alive (i.e., to an age of 6.5 months), but 3 of the 10 untreated old mice (Group 2) had died. Also, 2 animals in each of Groups 3 and 4 died during this same period.

CAT = test: In vivo CAT upregulation in rat brain and heart after iv injection (Western immunoblot); set-up: species or system Sprague-Dawley rats; details: 1.2 mg/kg iv, 6 hours post injection
Method: (§1) In vivo experiments were carried out in Sprague-Dawley rats (300-325 g) with solutions of peptide compounds PEP-1 and PEP-3. The animals were injected intravenously (iv) via the tail vein with a peptide compound. Each animal received one injection of peptide compound in normal saline at total dose equivalent of 1.2 or 2.4 mg peptide compound/kg body weight. The animals were sacrificed by decapitation at 6 hours post injection and dissected to isolate brain and heart organs, which were frozen at −70° C. for subsequent analysis by Western immunoblots.
(§2) Each tissue was thawed and homogenized in a Down's homogenizer using ten volumes of homogenizer buffer (see, Adams et al., […], 77: 221-233 (2000); buffer as described in Adams et al., J. Leukoc. Biol., 62: 865-875 […]) to obtain a crude cytoplasmic fraction. The tissue homogenates were centrifuged (14,000×g for 5 minutes at 4° C.) to yield the supernatant purified cytoplasmic protein fractions for Western immunoblot analysis as described in Adams et al. (J. Cell. Biochem., 77: 221-233 (2000)). A 10 μg sample of each protein fraction was then separated by SDS polyacrylamide gel electrophoresis (SDS-PAGE) and analyzed for SOD and CAT content by Western blot assay as above.
(§3) Controls for measurement of unstimulated levels of SOD were obtained from two vehicle-only (i.e., no peptide compound), injected rats that were sacrificed at 6 hours post injection. Both had essentially the same unstimulated level of SOD. Standard quantities of each cytoplasmic fraction (10 μg) were loaded on a lane of a gel for electrophoretic separation and Western immunoblot analysis (Adams et al., J. Cell. Biochem., 77: 221-233 (2000)). The stained gels were photographed and scanned by laser densitometry to quantify intensities in comparison to enzyme levels for control vehicle treated rats.

SOD [4] = test: In vivo SOD upregulation in rat brain and heart after iv injection (Western immunoblot); set-up: species or system Sprague-Dawley rats; details: 1.2 mg/kg iv, 6 hours post injection
Method: as §1, §2, §3

SOD [5] = test: SOD level in brain of old C57 Black mice, 14 days oral gavage on various schedules; assay type: in vivo; details: 18-month old mice
Method: Adult 18-month old C57 Black mice (“old mice”) were treated with 0.25 mg/kg of PEP-1 by oral gavage for a period of 14 days. The animals belonged to the following 5 treatment groups (n=3 per group): • Group 1: Control, untreated • Group 2: Treatment once per week • Group 3: Treatment twice per week • Group 4: Treatment every other day • Group 5: Daily treatment
At the end of 14 days, all animals were sacrificed and their brains were harvested and the SOD level was analyzed by Western immunoblot as described above. A SOD standard (“M”) was also run alongside the samples. The SOD levels were quantitated by densitometry measurements of the blot.

SOD-1 = test: PEP-2-dependent upregulation of SOD-1 in rat cortical cell cultures (Western immunoblot, densitometry); assay type: cell-based; details: 5 hours, rat brain cortical cells, vs vehicle control
Method: Primary cortical cultures were obtained by growing newborn rat brain cortical cells in Delbecco's modified Eagle medium supplemented with 100 units/ml of penicillin G, 100 μg/ml of streptomycin, and 10% fetal calf serum. The cells were isolated from the E-21 cortex of rat brain, plated at a density of 1×10^5 per ml and grown to confluence within four to five days in an atmosphere containing air and 5% CO2 at 37° C. as described in Cornell-Bell et al., Science, 247: 470473 (1990) and Cell Calcium, 12: 185-204 (1991). Cultures were grown in 20 ml flasks as a monolayer and then exposed to various concentrations of peptide for studies of the effects of PEP-2 on upregulation of the gene for SOD. Cultures of the rat brain cortical cells were incubated with 1 ng/ml, 10 ng/ml, and 100 ng/ml of peptide compound PEP-2 for durations of 5 hours. Control cultures were treated in the same manner, but were not incubated with PEP-2.
Cytoplasmic proteins were isolated according to published methods (Adams et al., J. Leukoc. Biol. 62: 865-873 (1997)). The cell cultures were washed once in phosphate buffer saline (PBS) containing 20 mM EDTA and then suspended in 250 μl of freshly prepared lysis buffer (20 mM Hepes, pH 7.9, 10 mM KCl, 300 mM NaCl, 1 mM MgCl2, 0.1% Triton X-100 nonionic detergent, 20% glycerol, 0.5 mM dithiothreitol (DTT), freshly supplemented with inhibitors as described in Adams et al., J. Biol. Chem., 77: 221-233 (2000)). The suspensions were then incubated for at least 10 minutes on ice to lyse cells and then centrifuged (14,000×g for 5 minutes at 4° C.) to pellet cell debris. The supernatant cytoplasmic fractions were removed and stored as aliquots at −80° C. for analysis. […]
The cytoplasmic proteins were separated by SDS-PAGE using 5 μg/lane on the gels for analysis by Western immunoblots. […] SOD expression was detected in the Western blots using anti-SOD rabbit polyclonal antibody (Rockland, Inc., Gilbertville, Pa.). The Western blots were also analyzed by laser densitometry to quantify SOD protein upregulation. […]

Question: With [Ac] Asp Gly Glu Ala (Ac-DGEA) [PEP-1] as the substance, how does the “increase in SOD level compared to untreated old control” value (SOD [1]; 0.33 mg/kg oral daily) read?
Answer: 2.9 fold

Question: And the “level of SOD expression in brain tissue compared to untreated old control” value (SOD [1]; 3.3 mg/kg oral daily)?
Answer: 4.8 fold

Question: What about the SOD-related breakdown fragments (SOD [1]; brain, 0.33 or 3.3 mg/kg oral daily) of the same substance?
Answer: no change

Question: What about the “horizontal locomotor activity (horizontal counts/min)” value ([2]; 0.025 mg/kg daily oral, six weeks (Group 3)) of the same substance?
Answer: failed to differ significantly from the old controls

Question: What about the “horizontal locomotor activity (horizontal counts/min)” value ([2]; 0.075 mg/kg daily oral, six weeks (Group 4)) of the same substance?
Answer: higher than that of the old controls

Question: What about the “horizontal locomotor activity (horizontal counts/min)” value ([2]; 0.25 mg/kg daily oral, six weeks (Group 5)) of the same substance?
Answer: higher than that of the old controls

Question: What about the “horizontal locomotor activity (horizontal counts/min)” value ([2]; 0.75 mg/kg daily oral, six weeks (Group 6)) of the same substance?
Answer: higher than that of the old controls

Question: What about the “animals that died during 70-day treatment period” value ([3]; 0.025 mg/kg daily oral gavage, n=10 (Group 3)) of the same substance?
Answer: 2 animals

Question: What about the “animals that died during 70-day treatment period” value ([3]; 0.075 mg/kg daily oral gavage, n=10 (Group 4)) of the same substance?
Answer: 2 animals

Question: And the “survival over 70-day treatment period” value ([3]; 0.25 mg/kg daily oral gavage, n=10 (Group 5))?
Answer: all of the old mice treated with PEP-1 survived

Question: What about the “survival over 70-day treatment period” value ([3]; 0.75 mg/kg daily oral gavage, n=10 (Group 6)) of the same substance?
Answer: all of the old mice treated with PEP-1 survived

Question: What about the “survival over 70-day treatment period” value ([3]; 2.5 mg/kg daily oral gavage, n=10 (Group 7)) of the same substance?
Answer: all of the old mice treated with PEP-1 survived

Question: What about the “CAT (Fold increase)” value (CAT; rat brain) of the same substance?
Answer: 1.0 fold

Question: What about the “CAT (Fold increase)” value (CAT; rat heart) of the same substance?
Answer: 1.1 fold

Question: What about the “SOD (Fold increase)” value (SOD [4]; rat brain) of the same substance?
Answer: 1.0 fold

Question: And the “SOD (Fold increase)” value (SOD [4]; rat heart)?
Answer: 1.0 fold

Question: And the “SOD level elevation compared to control group” value (SOD [5]; 0.25 mg/kg oral gavage daily)?
Answer: over 4.5 fold

Question: And the “SOD level elevation compared to control group” value (SOD [5]; 0.25 mg/kg oral gavage every other day)?
Answer: over 4.5 fold

Question: What about the “increase in SOD level compared to control group” value (SOD [5]; 0.25 mg/kg oral gavage twice per week) of the same substance?
Answer: 2.3 fold

Question: Which “Fold-Increase in SOD Expression” value (SOD-1; 1 ng/ml) does the source give for “[Ac] Asp Gly Glu Ala Leu (Ac-DGEAL) [PEP-2]” here?
Answer: 2 fold and 1.8 fold

Question: What about the “Fold-Increase in SOD Expression” value (SOD-1; 10 ng/ml) of the same substance?
Answer: 1.9 fold

Question: What about the “Fold-Increase in SOD Expression” value (SOD-1; 100 ng/ml) of the same substance?
Answer: 2.1 fold

Question: With “[Ac] Asp Gly Leu Glu Ala (Ac-DGLEA) [PEP-3]” as the substance, how does the “CAT (Fold increase)” value (CAT; rat brain) read?
Answer: 1.0 fold

Question: What about the “CAT (Fold increase)” value (CAT; rat heart) of the same substance?
Answer: 1.0 fold

Question: And the “SOD (Fold increase)” value (SOD [4]; rat brain)?
Answer: 1.0 fold

Question: And the “SOD (Fold increase)” value (SOD [4]; rat heart)?
Answer: 1.2 fold
